Some results are limits rather than exact numbers.

The target in one experiment is human NaV 1.8 (Homo sapiens, UniProt Q9Y5Y9). The experiment can be described thus: E-VIPR assay detecting and measuring NaV inhibition properties. The note with it: HEK cells expressing truncated human NaV 1.8; in the presence of human serum (compound numbers followed by *); read-out: IC50 in the E-VIPR Assay, performed in the presence of human serum. Format: cell-based. The source says: Sodium ion channels are voltage-dependent proteins that can be activated by inducing membrane voltage changes by applying electric fields. The electrical stimulation instrument and methods of use, referred to as E-VIPR, are described in International Publication No. WO 2002/008748 A3 and C.-J. Huang et al. Characterization of voltage-gated sodium channel blockers by electrical stimulation and fluorescence detection of membrane potential, 24 Nature Biotech. 439-46 (2006), both of which are incorporated by reference in their entirety. The instrument comprises a microtiter plate handler, an optical system for exciting the coumarin dye while simultaneously recording the coumarin and oxonol emissions, a waveform generator, a current- or voltage-controlled amplifier, and parallel electrode pairs that are inserted into assay plate wells. Under integrated computer control, this instrument passes user-programmed electrical stimulus protocols to cells within the wells of the microtiter plate.
Sequence of human NaV 1.8 (Q9Y5Y9 126-399 limits assumed): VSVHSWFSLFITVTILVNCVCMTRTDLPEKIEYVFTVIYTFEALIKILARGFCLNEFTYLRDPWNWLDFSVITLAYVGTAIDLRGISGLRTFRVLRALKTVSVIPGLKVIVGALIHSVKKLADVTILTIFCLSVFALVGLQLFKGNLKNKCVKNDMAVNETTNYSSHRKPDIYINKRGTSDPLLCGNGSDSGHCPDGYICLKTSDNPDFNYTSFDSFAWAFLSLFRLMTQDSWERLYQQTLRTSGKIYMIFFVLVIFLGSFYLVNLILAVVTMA
Sequence of human NaV 1.8 (Q9Y5Y9 660-890 limits assumed): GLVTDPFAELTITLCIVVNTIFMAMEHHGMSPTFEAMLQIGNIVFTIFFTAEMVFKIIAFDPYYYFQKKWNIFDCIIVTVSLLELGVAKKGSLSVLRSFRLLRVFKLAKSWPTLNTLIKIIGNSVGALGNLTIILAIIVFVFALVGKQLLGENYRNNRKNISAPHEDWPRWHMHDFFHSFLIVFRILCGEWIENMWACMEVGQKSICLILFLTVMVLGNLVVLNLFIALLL
Sequence of human NaV 1.8 (Q9Y5Y9 1148-1722 limits assumed): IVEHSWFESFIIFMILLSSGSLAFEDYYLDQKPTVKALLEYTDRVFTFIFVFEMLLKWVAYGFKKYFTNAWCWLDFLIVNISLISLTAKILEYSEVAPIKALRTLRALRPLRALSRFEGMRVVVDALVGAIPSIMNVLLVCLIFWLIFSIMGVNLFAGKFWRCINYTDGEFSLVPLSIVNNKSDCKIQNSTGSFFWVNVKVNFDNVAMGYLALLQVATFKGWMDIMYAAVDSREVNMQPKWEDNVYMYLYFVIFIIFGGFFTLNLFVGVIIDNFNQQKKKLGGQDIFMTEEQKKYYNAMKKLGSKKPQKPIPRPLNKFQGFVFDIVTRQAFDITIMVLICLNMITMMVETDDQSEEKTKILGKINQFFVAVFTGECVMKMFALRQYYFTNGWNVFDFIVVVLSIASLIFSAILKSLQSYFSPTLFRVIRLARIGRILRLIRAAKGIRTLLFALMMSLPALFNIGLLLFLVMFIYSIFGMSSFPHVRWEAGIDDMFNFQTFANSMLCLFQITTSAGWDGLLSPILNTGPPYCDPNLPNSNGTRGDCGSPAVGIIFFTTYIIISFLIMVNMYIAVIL
16-20 hours prior to running the assay on E-VIPR, HEK cells expressing a truncated form of human NaV 1.8 with full channel activity were seeded into microtiter 384-well plates, pre-coated with matrigel, at a density of 25,000 cells per well. 2.5-5% KIR2.1 Bacmam virus was added to the final cell suspension before seeding into cell plates. HEK cells were grown in Dulbecco's Modified Eagle's Medium (DMEM) supplemented with 10% FBS (Fetal Bovine Serum, qualified; Sigma #F4135), 1% NEAA (Non-Essential Amino Acids, Gibco #11140), 1% HEPES (Gibco #15630), 1% Pen-Strep (Penicillin-Streptomycin; Gibco #15140) and 5 μg/ml Blasticidin (Gibco #R210-01). Cells were expanded in vented cap cell culture flasks, with 90-95% humidity and 5% CO2.
Human Serum (HS, Millipore #S1P1-01KL, or Sigma SLBR5469V and SLBR5470V as a 50%/50% mixture, for 25% assay final concentration) • Bath 1 Buffer: • Sodium Chloride 160 mM (9.35 g/L), Potassium Chloride, 4.5 mM (0.335 g/L), Glucose 10 mM (1.8 g/L), Magnesium Chloride (Anhydrous) 1 mM (0.095 g/L), Calcium Chloride 2 mM (0.222 g/L), HEPES 10 mM (2.38 g/L) in water. • Na/TMA C1 Bath 1 Buffer: • Sodium Chloride 96 mM (5.61 g/L), Potassium Chloride 4.5 mM (0.335 g/L), Tetramethylammonium (TMA)-Cl 64 mM (7.01 g/L), Glucose 10 mM (1.8 g/L), Magnesium Chloride (Anhydrous) 1 mM (0.095 g/L), Calcium Chloride 2 mM (0.222 g/L) HEPES 10 mM (2.38 g/L) in water. • Hexyl Dye Solution (2× concentration): • Bath 1 Buffer containing 0.5% P-cyclodextrin (made fresh prior to each use, Sigma #C4767), 8 μM CC2-DMPE and 2 μM DiSBAC6(3). The solution was made by adding 10% Pluronic F127 stock equal to combined volumes of CC2-DMPE and DiSBAC6(3). The order of preparation was first mix Pluronic and CC2-DMPE, then add DiSBAC6(3), then while vortexing add Bath 1/p-Cyclodextrin.
Compound Loading Buffer (2× concentration): Na/TMA C1 Bath1 Buffer containing HS (omitted in experiments run in the absence of human serum (HS)) 50%, VABSC-1 1 mM, BSA 0.2 mg/ml (in Bath-1), KCl 9 mM, DMSO 0.625%.
1) To reach the final concentration in each well, 375 nL of each compound was pre-spotted (in neat DMSO) into polypropylene compound plates at 240× desired final concentration from an intermediate stock concentration of 0.075 mM, in an 11 point dose response, 3-fold dilution, resulting in a top dose of 300 nM final concentration in the cell plate. Vehicle control (neat DMSO), and positive control (an established NaV1.8 inhibitor, 25 μM final in assay in DMSO) were added manually to the outermost columns of each plate respectively. The compound plate was backfilled with 45 μL per well of Compound Loading Buffer resulting in a 240 fold dilution of compound following a 1:1 transfer of compound into the cell plate (see Step 6). Final DMSO concentration for all wells in the assay was 0.625% (0.75% DMSO was supplemented to the Compound Loading Buffer for a final DMSO concentration of 0.625%). […]
On to `COc1c([C@@H]2[C@@H](C(=O)Nc3cc[n+]([O-])c(C(O)CO)c3)O[C@](C)(C(F)(F)F)[C@@H]2C)ccc(F)c1C` (relative stereo) [Compound 138, rel-2-(1,2-dihydroxyethyl)-4-((2S,3R,4R,5S)-3-(4-fluoro-2-methoxy-3-methylphenyl)-4,5-dimethyl-5-(trifluoromethyl)tetrahydrofuran-2-carboxamido)pyridine 1-oxide], for which the IC50 (as a rule, the concentration needed to halve the response being measured) was at least 1000 nM.

The same experiment, now with this note: HEK cells expressing truncated human NaV 1.8; no human serum; read-out: IC50 in the E-VIPR Assay.
Regarding `COc1c([C@H]2[C@H](C(=O)Nc3cc(C4(N)COC4)ncc3F)O[C@@](C)(C(F)(F)F)[C@H]2C)ccc(F)c1F` [Compound 341, (2R,3S,4S,5R)-N-(2-(3-aminooxetan-3-yl)-5-fluoropyridin-4-yl)-3-(3,4-difluoro-2-methoxyphenyl)-4,5-dimethyl-5-(trifluoromethyl)-tetrahydrofuran-2-carboxamide], the IC50 is below 10 nM.

As to `COCC1(CNC(=O)[C@@H]2O[C@@](C)(C(F)(F)F)[C@@H](C)[C@H]2c2ccc(F)c(F)c2OC)CCC1` [Compound 276, (2R,3S,4S,5R)-3-(3,4-difluoro-2-methoxyphenyl)-N-((1-(methoxymethyl)cyclobutyl)methyl)-4,5-dimethyl-5-(trifluoromethyl)tetrahydrofuran-2-carboxamide], the IC50 was at least 1000 nM.

`Cc1nn(C(F)F)cc1NC(=O)[C@@H]1O[C@@](C)(C(F)(F)F)[C@@H](C)[C@H]1c1ccc(F)c(F)c1C(C)O` (relative stereo) [Compound 680, rac-(2R*,3S*,4S*,5R*)-3-(3,4-difluoro-2-(1-hydroxyethyl)phenyl)-N-(1-(difluoromethyl)-3-methyl-1H-pyrazol-4-yl)-4,5-dimethyl-5-(trifluoromethyl)tetrahydrofuran-2-carboxamide]: the IC50 was in the range of 10 to 100 nM.

Regarding `COc1c(C2C(C(=O)Nc3cc[n+]([O-])c(C(O)CO)c3)OC(C)(C(F)(F)F)C2C)ccc(F)c1F` (stereo not shown) [Compound 210, 3-(3,4-difluoro-2-methoxy-phenyl)-N-[2-(1,2-dihydroxyethyl)-1-oxido-pyridin-1-ium-4-yl]-4,5-dimethyl-5-(trifluoromethyl)tetrahydrofuran-2-carboxamide], the IC50 lay in the range of 10 to 100 nM.

With `CNS(=O)(=O)c1cc(NC(=O)C2OC(C)(C(F)(F)F)C(C)C2c2ccc(F)c(F)c2OC)ccn1` (single isomer, unassigned) [Compound 455, 3-(3,4-difluoro-2-methoxy-phenyl)-4,5-dimethyl-N-[2-(methylsulfamoyl)-4-pyridyl]-5-(trifluoromethyl)tetrahydrofuran-2-carboxamide], the IC50 was in the range of 100 to 1000 nM.

Take `COc1c([C@@H]2[C@@H](C(=O)Nc3cncc(S(=O)(=O)N(C)C)c3)O[C@](C)(C(F)(F)F)[C@@H]2C)ccc(F)c1F` (stereo in doubt) [Compound 452, rel-(2S,3R,4R,5S)-3-(3,4-difluoro-2-methoxyphenyl)-N-(5-(N,N-dimethylsulfamoyl)pyridin-3-yl)-4,5-dimethyl-5-(trifluoromethyl)tetrahydrofuran-2-carboxamide]: the IC50 was at least 1000 nM.

Consider `COC[C@@H](O)Cc1cc(NC(=O)[C@@H]2O[C@@](C)(C(F)(F)F)[C@@H](C)[C@H]2c2ccc(F)c(F)c2OCCN2CCOCC2)ccn1` [Compound 596, (2R,3S,4S,5R)-3-(3,4-difluoro-2-(2-morpholinoethoxy)phenyl)-N-(2-((S)-2-hydroxy-3-methoxypropyl)pyridin-4-yl)-4,5-dimethyl-5-(trifluoromethyl)tetrahydrofuran-2-carboxamide], for which the IC50 fell in the range of 10 to 100 nM.

In the case of `COCC(N)c1cc(NC(=O)[C@@H]2O[C@@](C)(C(F)(F)F)[C@@H](C)[C@H]2c2ccc(F)c(F)c2OC)ncn1` (single isomer, unassigned) [Compound 217], the IC50 was in the range of 10 to 100 nM.

As for `COc1c([C@H]2[C@H](C(=O)Nc3cc(C(O)CO)ncc3F)O[C@@](C)(C(F)(F)F)[C@H]2C)ccc(F)c1F` (single isomer, unassigned) [Compound 199, rel-(2R*,3S*,4S*,5R*)-3-(3,4-difluoro-2-methoxyphenyl)-N-(2-(-1,2-dihydroxyethyl)-5-fluoropyridin-4-yl)-4,5-dimethyl-5-(trifluoromethyl)tetrahydrofuran-2-carboxamide], the IC50 was below 10 nM.

In the case of `Cc1nn(C2COC2)cc1NC(=O)[C@@H]1O[C@@](C)(C(F)(F)F)[C@@H](C)[C@H]1c1ccc(F)c(F)c1OCCN1CCOCC1` [Compound 594, (2R,3S,4S,5R)-3-(3,4-difluoro-2-(2-morpholinoethoxy)phenyl)-4,5-dimethyl-N-(3-methyl-1-(oxetan-3-yl)-1H-pyrazol-4-yl)-5-(trifluoromethyl)tetrahydrofuran-2-carboxamide], the IC50 lay within 100 to 1000 nM.

Turning to `Cc1nn(C(F)F)cc1NC(=O)[C@@H]1O[C@@](C)(C(F)(F)F)[C@@H](C)[C@H]1c1ccc(F)c(F)c1CN(C)C1CCOCC1` [Compound 669, (2R,3S,4S,5R)-3-(3,4-difluoro-2-((methyl(tetrahydro-2H-pyran-4-yl)amino)methyl)phenyl)-N-(1-(difluoromethyl)-3-methyl-1H-pyrazol-4-yl)-4,5-dimethyl-5-(trifluoromethyl)tetrahydrofuran-2-carboxamide], the IC50 fell in the range of 10 to 100 nM.

Take `COCC(O)c1cc(NC(=O)[C@@H]2O[C@@](C)(C(F)(F)F)[C@@H](C)[C@H]2c2ccc(F)c(F)c2OC)ccn1` (single isomer, unassigned) [Compound 222, rel-(2R*,3S*,4S*,5R*)-3-(3,4-difluoro-2-methoxyphenyl)-N-(2-(1-hydroxy-2-methoxyethyl)pyridin-4-yl)-4,5-dimethyl-5-(trifluoromethyl)tetrahydrofuran-2-carboxamide]: the IC50 is below 10 nM.

Consider `COc1c([C@H]2[C@H](C(=O)NC(C)C(=O)NC3CC3)O[C@@](C)(C(F)(F)F)[C@H]2C)ccc(F)c1F` (stereo partly drawn) [Compound 297, (2R,3S,4S,5R)-N-(1-(cyclopropylamino)-1-oxopropan-2-yl)-3-(3,4-difluoro-2-methoxyphenyl)-4,5-dimethyl-5-(trifluoromethyl)tetrahydrofuran-2-carboxamide], for which the IC50 is at least 1000 nM.

In the case of `COc1c([C@H]2[C@H](C(=O)Nc3ccn4c(=O)n(CCO)nc4c3)O[C@@](C)(C(F)(F)F)[C@H]2C)ccc(F)c1F` [Compound 430, (2R,3S,4S,5R)-3-(3,4-difluoro-2-methoxy-phenyl)-N-[2-(2-hydroxyethyl)-3-oxo-[1,2,4]triazolo[4,3-a]pyridin-7-yl]-4,5-dimethyl-5-(trifluoromethyl)tetrahydrofuran-2-carboxamide], the IC50 fell in the range of 10 to 100 nM.

Consider `COCCOc1c([C@H]2[C@H](C(=O)Nc3ccc4nncn4c3)O[C@@](C)(C(F)(F)F)[C@H]2C)ccc(F)c1F` [Compound 577, (2R,3S,4S,5R)-3-[3,4-difluoro-2-(2-methoxyethoxy)phenyl]-4,5-dimethyl-N-([1,2,4]triazolo[4,3-a]pyridin-6-yl)-5-(trifluoromethyl)tetrahydrofuran-2-carboxamide], for which the IC50 was below 10 nM.

(Values after patent US20240368135A1 (VERTEX PHARMACEUTICALS INCORPORATED, priority 2021, published 2024).)
